Measurements from ChEMBL document CHEMBL1135206, “Albumin affinity tags increase peptide half-life in vivo” (Bioorg Med Chem Lett, 2002).
Where a SMILES comes first, the peptide text is derived from it. Bridges are numbered along the chain shown (N, C = ends). The star is where a group is joined. X1 = CC(C)Cc1ccc([C@@H](C)C(=O)*)cc1

Legend:
[1] = Mean retention time in male New Zealand white rabbits after i.v. administration at 2.0 mg/kg; assay type: ADME, organism-based, Oryctolagus cuniculus; set-up: dose 2 mg/kg, route intravenous; conditions: rabbit, in vivo, iv
Albumin = Albumin (Homo sapiens, UniProt P02768); test: In vitro binding affinity for human serum albumin.; set-up: unit not given here
[2] = Mean retention time in male New Zealand white rabbits after administration via an indwelling catheter in an ear vein at 4.9 mg/kg; assay type: ADME, organism-based, Oryctolagus cuniculus; set-up: dose 4.9 mg/kg; conditions: rabbit, in vivo, iv
[3] = Clearance in male New Zealand white rabbits after i.v. administration at 2.0 mg/kg; assay type: ADME, organism-based, Oryctolagus cuniculus; set-up: dose 2 mg/kg, route intravenous; conditions: rabbit, in vivo, iv
[4] = Plasma half-life in male New Zealand white rabbits after administration via an indwelling catheter in an ear vein at 4.9 mg/kg; assay type: ADME, organism-based, Oryctolagus cuniculus; set-up: dose 4.9 mg/kg; conditions: rabbit, iv
Coagulation factor VII = target: T1, Coagulation factor VII (Homo sapiens, UniProt P08709); test: Inhibition of amino terminally biotinylated E-76 peptide binding to immobilized fVIIa
T1 sequence (P08709 whole entry): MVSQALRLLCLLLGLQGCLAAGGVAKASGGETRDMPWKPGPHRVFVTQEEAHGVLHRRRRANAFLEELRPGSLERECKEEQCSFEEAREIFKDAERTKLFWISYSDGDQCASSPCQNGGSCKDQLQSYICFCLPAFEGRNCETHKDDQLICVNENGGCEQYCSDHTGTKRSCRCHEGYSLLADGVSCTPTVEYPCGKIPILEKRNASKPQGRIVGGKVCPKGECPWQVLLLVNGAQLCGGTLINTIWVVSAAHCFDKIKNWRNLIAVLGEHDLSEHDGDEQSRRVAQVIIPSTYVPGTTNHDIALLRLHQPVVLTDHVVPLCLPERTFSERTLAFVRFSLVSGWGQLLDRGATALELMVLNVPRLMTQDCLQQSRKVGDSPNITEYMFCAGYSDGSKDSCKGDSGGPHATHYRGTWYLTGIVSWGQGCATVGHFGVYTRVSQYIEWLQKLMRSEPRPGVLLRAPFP

[5] = Plasma half-life in male New Zealand white rabbits after i.v. administration at 2.0 mg/kg; assay type: ADME, organism-based, Oryctolagus cuniculus; set-up: dose 2 mg/kg, route intravenous; conditions: rabbit, iv
[6] = Clearance in male New Zealand white rabbits after administration via an indwelling catheter in an ear vein at 4.9 mg/kg; assay type: ADME, organism-based, Oryctolagus cuniculus; set-up: dose 4.9 mg/kg; conditions: rabbit, in vivo, iv

Chain of Albumin (P02768 whole entry): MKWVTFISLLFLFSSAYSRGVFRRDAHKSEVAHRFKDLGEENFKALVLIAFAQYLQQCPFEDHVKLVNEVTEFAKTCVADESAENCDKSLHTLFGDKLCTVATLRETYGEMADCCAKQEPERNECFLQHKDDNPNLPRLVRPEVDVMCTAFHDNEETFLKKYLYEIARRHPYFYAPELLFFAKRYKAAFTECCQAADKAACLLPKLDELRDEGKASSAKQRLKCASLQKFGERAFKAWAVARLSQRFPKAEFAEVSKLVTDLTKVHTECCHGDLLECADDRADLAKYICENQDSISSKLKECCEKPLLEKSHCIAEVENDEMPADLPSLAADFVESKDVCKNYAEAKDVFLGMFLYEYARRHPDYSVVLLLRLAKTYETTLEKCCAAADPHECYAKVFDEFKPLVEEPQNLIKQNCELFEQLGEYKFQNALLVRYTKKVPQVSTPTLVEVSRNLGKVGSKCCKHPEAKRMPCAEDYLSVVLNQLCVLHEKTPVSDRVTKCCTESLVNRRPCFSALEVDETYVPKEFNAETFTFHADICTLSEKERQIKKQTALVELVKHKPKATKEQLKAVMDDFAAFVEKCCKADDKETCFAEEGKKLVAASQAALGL

With `CC[C@H](C)[C@@H]1NC(=O)[C@H](CCCN=C(N)N)NC(=O)[C@@H]2CCCN2C(=O)[C@H](CC(N)=O)NC(=O)[C@H](CC(=O)O)NC(=O)[C@@H](NC(=O)[C@H](CC(C)C)NC(=O)[C@H](C)NC(=O)[C@H](C)c2ccc(CC(C)C)cc2)CSSC[C@@H](C(=O)N[C@@H](CCC(N)=O)C(=O)N[C@@H](Cc2ccccc2)C(=O)N[C@H](C(=O)N[C@@H](CCC(=O)O)C(=O)NCC(N)=O)C(C)C)NC(=O)[C@H](Cc2ccc(O)cc2)NC(=O)[C@H](Cc2c[nH]c3ccccc23)NC(=O)[C@H](CCCN=C(N)N)NC(=O)[C@H](CC(=O)O)NC1=O` (X1-ALCDNPRIDRWYCQFVEG-NH2; disulfide 3-13) the MRT [1] was 19 min, the Binding affinity (Albumin) was 0.76 and the MRT [2] was 33 min. For the same molecule, the clearance [3] was 1.8 mL/min/kg, the half-life [4] was 24 min and the IC50 (Coagulation factor VII) was 14.6 nM. For the same molecule, the half-life [5] was 17 min and the clearance [6] was 1.5 mL/min/kg.
